Patent US20240270658A1, “Use of an N-Functionalized Alkoxy Pyrazole Compound as Nitrification Inhibitor” (BASF SE, priority 2021, published 2024)

Columns and labels:
[1] = test system: nitrification (soil Limburgerhof, microbial biomass); assay: Inhibition of nitrification in soil incubation (NH4-N recovery and NO3-N formation); settings: 14 days after treatment, 20° C.
Experimental: The soil is incubated at 20° C. for two weeks prior to the experiments to activate the microbial biomass. 1 ml test solution, containing the compounds of formula I in the appropriate concentration (usually 0.3 or 1% (w/w) of fertilized NH4—N), and 10 mg nitrogen in the form of ammoniumsulfate-N(NH4—N) is added to the soil and everything mixed well. Unfertilized controls received 1 ml pure water. Bottles are capped but loosely to allow air exchange. The bottles are then incubated at 20° C. for 0 and 14 days. For analysis, 300 ml of a 1% K2SO4-solution is added to the bottle containing the soil and shaken for 2 hours in a horizontal shaker at 150 rpm. Then the whole solution is filtered through a filter (Macherey-Nagel Filter MN 807%). Ammonium and nitrate content is then analyzed in the filtrate using an autoanalyzer. Ammonium was quantified via an indophenol blue dye at 660 nm, and nitrate via an azo dye at 540 nm. The nitrification inhibition is expressed as % of NH4—N recovery from fertilized NH4—N (100%) after subtraction of unfertilized control soil, and as % inhibition of NO3—N formation (% reduction of NO3^− production) according to the formula: [formula]

[2] = test system: nitrification (soil Limburgerhof, microbial biomass); assay: Comparison of % NH4-N recovery in soil incubation, data pooled from different trials; settings: average pooled from different trials
Experimental: Examples 2 and 3 were further tested with regard to Comparative Example 1 in terms of the % NH4—N recovery. 100 g Soil (soil Limburgerhof with pH(CaCl2) 6.8; 73% sand, 23% silt, 4% clay, which is classified according to FAO as a sandy loam) is filled into 500 ml plastic bottles and is moistened to 50% water holding capacity. The soil is incubated at 20° C. for two weeks prior to the experiments to activate the microbial biomass. 1 ml Test solution, containing the compounds of formula I or the comparative example in the appropriate concentration (0.3 or 1% (w/w) of fertilized NH4—N), and 10 mg nitrogen in the form of ammoniumsulfate-N(NH4—N) is added to the soil and everything mixed well. Unfertilized controls received 1 ml pure water. Bottles are capped but loosely to allow air exchange. The bottles are then incubated at 20° C. for 14 days. For analysis, 300 ml of a 1% K2SO4-solution is added to the bottle containing the soil and shaken for 2 hours in a horizontal shaker at 150 rpm. Then the whole solution is filtered through a filter (Macherey-Nagel Filter MN 807%). Ammonium content is then analyzed in the filtrate using an autoanalyzer. Ammonium was quantified via an indophenol blue dye at 660 nm. The nitrification inhibition is expressed as % of NH4—N recovery from fertilized NH4—N (100%) after subtraction of unfertilized control soil. For comparison of the % NH4—N recovery of the compounds of the invention, i.e. Examples 2 and 3, with comparative example 1 as shown below from different trials, the standard deviation of a common treatment of all trials with DMPP (3,4-dimethylpyrazole phosphate) was calculated. Based on this calculation the data from different trials can be pooled together to calculate an average % NH4—N recovery for the compounds of the invention and the comparative compound as shown below.

[3] = Stability (recovery experiment) of nitrification inhibitor on treated fertilizer granules; assay type: physicochemical; settings: dose NI 1 % NH4N; for NI on fertilizer granules [%] after storage 4 weeks 20° C.: open beaker, 50% rH; for NI on fertilizer granules [%] initial: sample stored at -18° C.
Experimental: Examples 2 and 3 were further tested with regard to Comparative Example 1 in terms of their stability (recovery experiment)
Ammonium Sulphate Nitrate (ASN) fertilizer granules and Diammonium phosphate (DAP) fertilizer granules were treated with liquid preparations of the Nitrification Inhibitor (NI) of example 2 and 3 and Comparative Example 1.
For the recovery experiment, a small amount (˜10g) of each treated fertilizer sample was filled into a closed glass vial and stored at −18° C. Another 250 g of each treated fertilizer sample were filled into an open glass beaker and stored at 20° C. and 50% relative humidity (rH). After four weeks of storage, 50g of the samples stored at 20° C. and 50% rH were drawn from the bottom and analyzed by HPCL for NI content in comparison to the −18° C. sample. The recovery is given in % as ratio of the NI content of the 20° C. sample divided by the NI content of the −18° C. sample.

[4] = Volatility of prior-art nitrification inhibitor; assay type: physicochemical; settings: statement in words on the prior-art compound
Text: Sharma et al. (J P Sharma, H K Taneja, S S Tomar Pesticide Research Journal, 2006, 18(1), 7-11) inter alia discloses 3-ethoxy-5-methylpyrazole as nitrification inhibitor.

[5] = applied dose 0.3 wt.-% relative to NH4-N
[6] = applied dose 1.0 wt.-% relative to NH4-N

Row | NI on fertilizer granules [%] after storage 4 weeks 20° C. ([3]; ASN fertilizer granules) | NI on fertilizer granules [%] initial ([3]; ASN fertilizer granules) | NI on fertilizer granules [%] after storage 4 weeks 20° C. ([3]; DAP fertilizer granules) | NI on fertilizer granules [%] initial ([3]; DAP fertilizer granules) | volatility [4] | Compound | average inhibition % of NO3 DAT14 (n = 4) [1, 5] | average recovery % NH4-N DAT14 (n = 4) [1, 5] | average inhibition % of NO3 DAT14 (n = 4) [1, 6] | average recovery % NH4-N DAT14 (n = 4) [1, 6] | % NH4-N recovery after 14 days ([2]; 0.3 wt.-% relative to NH4-N) | % NH4-N recovery after 14 days ([2]; 1 wt.-% relative to NH4-N)
1 | 0.000% | 0.034% | 0.057% | 0.110% | – | CCOc1cc(C)nn1CO [Comparative Example 1, reference compound] | – | – | – | – | 36% | 46%
2 | 0.113% | 0.116% | 0.044% | 0.052% | – | CCOC(=O)CC(=O)n1nc(OC)cc1C [Example 3] | 60% | 49% | 90% | 71% | 41% | 64%
3 | – | – | 0.015% | 0.023% | – | CCCCCCCOC(=O)n1nc(OC)cc1C [Example 2] | 60% | 55% | 89% | 66% | 47% | 58%

The remaining lines, values behind:

Row | Compound | NI on fertilizer granules [%] after storage 4 weeks 20° C. ([3]; ASN fertilizer granules) | NI on fertilizer granules [%] initial ([3]; ASN fertilizer granules) | NI on fertilizer granules [%] after storage 4 weeks 20° C. ([3]; DAP fertilizer granules) | NI on fertilizer granules [%] initial ([3]; DAP fertilizer granules) | volatility [4] | average inhibition % of NO3 DAT14 (n = 4) [1, 5] | average recovery % NH4-N DAT14 (n = 4) [1, 5] | average inhibition % of NO3 DAT14 (n = 4) [1, 6] | average recovery % NH4-N DAT14 (n = 4) [1, 6] | % NH4-N recovery after 14 days ([2]; 0.3 wt.-% relative to NH4-N) | % NH4-N recovery after 14 days ([2]; 1 wt.-% relative to NH4-N)
4 | COc1cc(C)n(C(=O)c2cccc(F)c2)n1 [Example 5] | – | – | – | – | – | 20% | 25% | 50% | 39% | – | –
5 | CCOc1cc(C)[nH]n1 [3-ethoxy-5-methylpyrazole] | – | – | – | – | high volatility | – | – | – | – | – | –
6 | COc1cc(C)n(C(=O)C2CCOCC2)n1 [Example 4] | – | – | – | – | – | 33% | 40% | 82% | 66% | – | –
7 | CCCCCCCOC(=O)n1nc(C)cc1OC [Example 1] | – | – | – | – | – | 44% | 40% | 82% | 68% | – | –
